{
  "source": "paper PMC7369637",
  "about": "“Inhibition of Resistance-Refractory P. falciparum Kinase PKG Delivers Prophylactic, Blood Stage, and Transmission-Blocking Antiplasmodial Activity” (Cell Chemical Biology, 2020)",
  "key": {"female gamete formation": {"tested_on": "female gamete formation", "conditions": "ref Miguel-Blanco et al., 2017; cited from earlier work"}, "[1]": {"molecular_target": "T1, human protein extracts (Mixed: HEK-293/ K-562/ Placenta/ Hep G2) (Homo sapiens, UniProt P08240)", "T1 construct": "endogenous in cells; host or cells: mixture of HEK-293, K-562, Hep G2 and placenta", "T1 sequence (P08240 whole entry)": "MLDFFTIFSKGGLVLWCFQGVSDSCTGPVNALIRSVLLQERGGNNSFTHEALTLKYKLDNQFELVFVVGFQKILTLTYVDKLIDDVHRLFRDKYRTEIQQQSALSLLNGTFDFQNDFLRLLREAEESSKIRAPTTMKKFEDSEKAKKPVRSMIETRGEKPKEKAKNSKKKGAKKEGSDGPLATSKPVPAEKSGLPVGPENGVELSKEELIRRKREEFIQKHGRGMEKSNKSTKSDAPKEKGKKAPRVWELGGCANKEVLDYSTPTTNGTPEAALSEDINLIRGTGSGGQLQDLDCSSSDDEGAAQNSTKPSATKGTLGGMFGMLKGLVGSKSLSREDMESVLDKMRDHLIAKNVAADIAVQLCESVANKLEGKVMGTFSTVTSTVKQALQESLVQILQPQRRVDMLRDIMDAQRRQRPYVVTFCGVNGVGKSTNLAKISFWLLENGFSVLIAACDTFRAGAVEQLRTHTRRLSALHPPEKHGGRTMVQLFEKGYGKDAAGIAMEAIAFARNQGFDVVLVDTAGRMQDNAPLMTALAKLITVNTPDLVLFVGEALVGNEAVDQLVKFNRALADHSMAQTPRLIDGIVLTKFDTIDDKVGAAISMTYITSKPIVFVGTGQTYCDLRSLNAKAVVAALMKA", "assay": "Chemoproteomic profiling, MS/MS data for all quantified proteins (Table S1 E3)", "type": "binding", "protocol": "(§1) Human extracts were prepared as described ([Bantscheff et al., 2011]). Briefly, frozen cell pellets were homogenized in lysis buffer (50 mM Tris-HCl, 0.8% Igepal-CA630, 5% glycerol, 150 mM NaCl, 1.5 mM MgCl2, 25 mM sodium fluoride, 1 mM sodium vanadate, 1 mM DTT, pH 7.5). One cOmplete EDTA-free protease inhibitor tablet (Roche) was added per 25 ml. Samples were dispersed using a Dounce homogenizer, rotated for 30 min at 4°C, and centrifuged at 20,000g for 10 min at 4°C. Supernatants were then recentrifuged at 145,000g for 1 h at 4°C. Protein concentrations were determined using a Bradford assay (BioRad). Aliquots were snap frozen in liquid nitrogen and stored at −80°C.\n(§2) Kinobeads were prepared by immobilizing Bis-(III) indolyl-maleimide, purvalanol B, staurosporine and CZC8004, and the analogs of PD173955, sunitinib and vandetanib on NHS-activated Sepharose 4 beads (Amersham) ([Bantscheff et al., 2007]). […] The chemoproteomic affinity-capturing experiments were performed as previously described ([Bantscheff et al., 2011]). Briefly, beads were washed and equilibrated in lysis buffer (50 mM Tris-HCl, pH 7.4, 0.4 % Igepal-CA630, 1.5 mM MgCl2, 5 % Glycerol, 150 mM NaCl, 25 mM NaF, 1 mM Na3VO4, 1 mM DTT, and one cOmplete EDTA-free protease inhibitor tablet (Roche) per 25 mL). […] 10 samples were measured in parallel (TMT 10-plex ([Werner et al., 2014])) to generate values for the affinity of the beads to the bound proteins (“depletion” values, 4 samples) and to generate IC50 values (6 samples) in a single experiment. Apparent dissociation constants were determined after accounting for protein depletion by the beads ([Bantscheff et al., 2011]). […]\n(§3) Proteins were digested according to a modified single pot solid-phase sample preparation (SP3) protocol ([Hughes et al., 2014]). Peptides were labeled with isobaric mass tags (Thermo Fisher Scientific, Waltham, MA) using 10-plex TMT reagents, enabling relative quantification of 10 conditions in a single experiment ([Werner et al., 2014]). […]"}, "[2]": {"molecular_target": "T2, human protein extracts (Mixed: HEK-293/ K-562/ Placenta/ Hep G2) (Homo sapiens, UniProt Q7L576)", "T2 construct": "endogenous in cells; host or cells: mixture of HEK-293, K-562, Hep G2 and placenta", "T2 sequence (Q7L576 whole entry)": "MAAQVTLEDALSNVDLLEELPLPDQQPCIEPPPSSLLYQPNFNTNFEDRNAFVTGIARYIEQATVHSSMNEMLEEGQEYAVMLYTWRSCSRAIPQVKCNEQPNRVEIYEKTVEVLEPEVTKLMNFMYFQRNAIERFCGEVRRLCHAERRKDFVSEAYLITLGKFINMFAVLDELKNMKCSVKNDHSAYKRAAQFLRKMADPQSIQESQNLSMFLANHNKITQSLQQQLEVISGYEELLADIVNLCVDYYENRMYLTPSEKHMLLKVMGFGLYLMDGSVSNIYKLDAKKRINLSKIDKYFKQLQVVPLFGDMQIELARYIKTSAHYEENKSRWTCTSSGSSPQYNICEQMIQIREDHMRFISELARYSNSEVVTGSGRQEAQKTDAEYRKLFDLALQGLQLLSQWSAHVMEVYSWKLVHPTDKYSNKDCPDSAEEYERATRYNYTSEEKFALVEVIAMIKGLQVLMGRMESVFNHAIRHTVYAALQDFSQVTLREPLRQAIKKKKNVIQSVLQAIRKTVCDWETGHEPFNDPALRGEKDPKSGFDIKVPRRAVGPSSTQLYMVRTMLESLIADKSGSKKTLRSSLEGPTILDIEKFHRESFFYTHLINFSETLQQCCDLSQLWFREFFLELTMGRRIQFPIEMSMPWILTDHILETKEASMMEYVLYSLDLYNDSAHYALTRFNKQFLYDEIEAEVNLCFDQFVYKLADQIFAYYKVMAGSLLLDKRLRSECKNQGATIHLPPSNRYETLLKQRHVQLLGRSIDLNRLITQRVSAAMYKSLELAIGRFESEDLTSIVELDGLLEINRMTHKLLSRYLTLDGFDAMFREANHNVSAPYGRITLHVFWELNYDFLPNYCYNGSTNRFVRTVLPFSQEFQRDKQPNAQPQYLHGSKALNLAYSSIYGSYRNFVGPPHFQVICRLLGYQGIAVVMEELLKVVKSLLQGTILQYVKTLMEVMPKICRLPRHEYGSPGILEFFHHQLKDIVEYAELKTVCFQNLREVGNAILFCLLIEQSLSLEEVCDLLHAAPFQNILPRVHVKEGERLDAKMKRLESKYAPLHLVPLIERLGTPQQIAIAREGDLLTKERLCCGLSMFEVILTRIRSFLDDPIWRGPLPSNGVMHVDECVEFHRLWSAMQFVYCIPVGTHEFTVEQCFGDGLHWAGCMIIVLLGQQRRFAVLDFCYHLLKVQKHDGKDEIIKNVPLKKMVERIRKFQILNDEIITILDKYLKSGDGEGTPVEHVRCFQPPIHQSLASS", "assay": "Chemoproteomic profiling, MS/MS data for all quantified proteins (Table S1 E3)", "type": "binding", "protocol": "as §1, §2, §3"}, "[3]": {"molecular_target": "T3, human protein extracts (Mixed: HEK-293/ K-562/ Placenta/ Hep G2) (Homo sapiens, UniProt P21127)", "T3 construct": "endogenous in cells; host or cells: mixture of HEK-293, K-562, Hep G2 and placenta", "T3 sequence (P21127 whole entry)": "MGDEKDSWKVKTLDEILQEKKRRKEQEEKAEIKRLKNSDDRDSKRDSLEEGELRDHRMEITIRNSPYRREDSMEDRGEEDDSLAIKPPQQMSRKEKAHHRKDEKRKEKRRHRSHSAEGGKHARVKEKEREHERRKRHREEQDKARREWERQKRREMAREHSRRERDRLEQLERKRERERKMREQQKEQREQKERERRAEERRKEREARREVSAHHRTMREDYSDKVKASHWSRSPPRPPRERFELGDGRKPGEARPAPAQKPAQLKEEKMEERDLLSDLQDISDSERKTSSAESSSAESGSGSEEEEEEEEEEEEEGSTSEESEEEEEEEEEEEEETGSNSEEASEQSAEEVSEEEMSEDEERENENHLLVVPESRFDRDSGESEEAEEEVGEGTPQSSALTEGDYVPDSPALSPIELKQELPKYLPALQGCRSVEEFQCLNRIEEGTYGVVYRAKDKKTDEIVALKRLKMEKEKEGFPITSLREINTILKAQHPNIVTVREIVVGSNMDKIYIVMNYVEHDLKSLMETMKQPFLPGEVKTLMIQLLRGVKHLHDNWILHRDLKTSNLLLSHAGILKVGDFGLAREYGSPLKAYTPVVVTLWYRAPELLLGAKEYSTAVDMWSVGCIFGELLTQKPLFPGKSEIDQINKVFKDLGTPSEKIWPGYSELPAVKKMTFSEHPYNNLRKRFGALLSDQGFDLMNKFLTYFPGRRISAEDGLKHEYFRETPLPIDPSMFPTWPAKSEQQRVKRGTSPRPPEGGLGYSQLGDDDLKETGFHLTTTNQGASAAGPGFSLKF", "assay": "Chemoproteomic profiling, MS/MS data for all quantified proteins (Table S1 E3)", "type": "binding", "protocol": "as §1, §2, §3"}, "Pf NF54 female gametes": {"tested_on": "Pf NF54 female gametes", "assay": "Dual gamete formation assay, female gamete formation", "type": "cell-based, Plasmodium falciparum", "conditions": "carry-over and wash-out", "protocol": "Pf NF54 gametocytes were generated as reported elsewhere ([Delves et al., 2016]). Briefly, static cultures of unsynchronized asexual parasites were continuously maintained as above. Parasites were cultured at 1% ring-stage parasitemias and 4% (v/v) hematocrit prior to the induction of gametocytes. To prepare gametocytes, 75% of the media was replaced daily for 14 subsequent days without adding fresh RBCs. During this process the temperature was kept strictly constant, as the rate of exflagellation is highly temperature-dependent. Between days 1 and 4 after culture induction, the asexual parasitemias increased rapidly to a peak. By day 7, as the asexual population waned, early-stage gametocytes became observable. By day 8, gametocyte maturation had progressed, and by day 14 morphologically distinguishable, mature stage V male and female gametocytes were present. […] Control reactions contained DMSO or 20 μM methylene blue (as negative and positive controls, respectively). […] After imaging, the plate was incubated at 18°C for a further 24 h to allow female gametes to maximally express Pfs25, followed by fluorescence microscopy imaging using a 10× objective. Both time lapse images of exflagellation and fluorescence images of female gametes were automatically quantified using custom scripts in ICY BioImage Analysis ([Delves et al., 2016])."}},
  "note": "“Also recorded” adds a separate entry of the source.",
  "data": [
    {"smiles": "CC(C)(CN)c1nc(-c2ccc(Cl)c(O)c2)c(-c2ccncc2)[nH]1", "note": "[MMV030084]", "values": [
      {"measurement": "Inhibition of female gamete formation", "setting": "female gamete formation", "result": "inhibitors of female gamete formation"},
      {"measurement": "IC50", "setting": "[1]", "result": "≥ 30", "unit": "µM"},
      {"measurement": "IC50", "setting": "[2]", "result": "≥ 30", "unit": "µM"},
      {"measurement": "IC50", "setting": "[3]", "result": "≥ 30", "unit": "µM"},
      {"measurement": "Activity against female gametes", "setting": "Pf NF54 female gametes", "result": "ambiguous results; also recorded: little to no activity"}
    ]}
  ]
}
